Legend:
[1] = target: T1, G protein-coupled receptor kinase 3 (Homo sapiens) (UniProt P35626); assay: Inhibition of GRK3 (unknown origin) at 10 uM after 120 mins P33 radiolabeled kinase activity assay
T1 sequence (whole entry): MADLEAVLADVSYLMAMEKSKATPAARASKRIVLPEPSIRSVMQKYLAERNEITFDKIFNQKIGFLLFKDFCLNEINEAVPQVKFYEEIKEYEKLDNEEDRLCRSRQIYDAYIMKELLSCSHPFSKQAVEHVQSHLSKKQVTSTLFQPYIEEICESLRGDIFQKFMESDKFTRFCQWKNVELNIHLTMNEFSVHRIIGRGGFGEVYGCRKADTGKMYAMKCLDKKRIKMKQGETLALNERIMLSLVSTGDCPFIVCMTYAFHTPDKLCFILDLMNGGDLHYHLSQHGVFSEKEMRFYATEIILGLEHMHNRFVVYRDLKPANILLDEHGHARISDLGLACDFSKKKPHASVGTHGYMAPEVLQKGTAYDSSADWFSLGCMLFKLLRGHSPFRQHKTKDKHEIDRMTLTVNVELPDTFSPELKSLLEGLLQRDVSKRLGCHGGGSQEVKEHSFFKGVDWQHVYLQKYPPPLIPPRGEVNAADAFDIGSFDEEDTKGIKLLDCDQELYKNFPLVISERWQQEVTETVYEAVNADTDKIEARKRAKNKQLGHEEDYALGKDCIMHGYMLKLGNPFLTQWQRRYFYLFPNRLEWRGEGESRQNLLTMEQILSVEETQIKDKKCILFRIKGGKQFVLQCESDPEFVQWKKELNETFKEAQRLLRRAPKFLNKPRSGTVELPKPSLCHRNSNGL

[2] = target: T2, Serine/threonine-protein kinase Nek11 (Homo sapiens) (UniProt Q8NG66); assay: Inhibition of NEK11 (unknown origin) at 10 uM after 120 mins P33 radiolabeled kinase activity assay
T2 sequence (whole entry): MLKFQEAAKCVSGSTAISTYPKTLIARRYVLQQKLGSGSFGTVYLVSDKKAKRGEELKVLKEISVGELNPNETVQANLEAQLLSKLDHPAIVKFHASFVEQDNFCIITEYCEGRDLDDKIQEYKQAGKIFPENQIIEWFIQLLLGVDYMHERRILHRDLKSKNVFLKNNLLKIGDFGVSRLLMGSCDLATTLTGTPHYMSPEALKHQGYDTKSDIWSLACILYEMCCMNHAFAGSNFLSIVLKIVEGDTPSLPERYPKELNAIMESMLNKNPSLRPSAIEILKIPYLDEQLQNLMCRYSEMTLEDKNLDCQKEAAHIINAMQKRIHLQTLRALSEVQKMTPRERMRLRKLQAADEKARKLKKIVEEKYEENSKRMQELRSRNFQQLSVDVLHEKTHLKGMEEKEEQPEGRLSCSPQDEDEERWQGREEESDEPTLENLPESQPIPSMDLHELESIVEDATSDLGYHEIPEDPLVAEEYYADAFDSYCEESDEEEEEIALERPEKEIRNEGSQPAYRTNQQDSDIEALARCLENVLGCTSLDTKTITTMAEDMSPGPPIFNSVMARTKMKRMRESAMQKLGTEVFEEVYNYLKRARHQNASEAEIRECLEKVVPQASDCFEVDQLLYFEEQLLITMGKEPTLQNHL

[3] = target: Macrophage-stimulating protein receptor (Homo sapiens) (UniProt Q04912); assay: Inhibition of RON (unknown origin) at 10 uM after 120 mins P33 radiolabeled kinase activity assay
[4] = target: T3, Ephrin type-A receptor 1 (Homo sapiens) (UniProt P21709); assay: Inhibition of EPHA1 (unknown origin) at 10 uM after 120 mins P33 radiolabeled kinase activity assay
T3 sequence (whole entry): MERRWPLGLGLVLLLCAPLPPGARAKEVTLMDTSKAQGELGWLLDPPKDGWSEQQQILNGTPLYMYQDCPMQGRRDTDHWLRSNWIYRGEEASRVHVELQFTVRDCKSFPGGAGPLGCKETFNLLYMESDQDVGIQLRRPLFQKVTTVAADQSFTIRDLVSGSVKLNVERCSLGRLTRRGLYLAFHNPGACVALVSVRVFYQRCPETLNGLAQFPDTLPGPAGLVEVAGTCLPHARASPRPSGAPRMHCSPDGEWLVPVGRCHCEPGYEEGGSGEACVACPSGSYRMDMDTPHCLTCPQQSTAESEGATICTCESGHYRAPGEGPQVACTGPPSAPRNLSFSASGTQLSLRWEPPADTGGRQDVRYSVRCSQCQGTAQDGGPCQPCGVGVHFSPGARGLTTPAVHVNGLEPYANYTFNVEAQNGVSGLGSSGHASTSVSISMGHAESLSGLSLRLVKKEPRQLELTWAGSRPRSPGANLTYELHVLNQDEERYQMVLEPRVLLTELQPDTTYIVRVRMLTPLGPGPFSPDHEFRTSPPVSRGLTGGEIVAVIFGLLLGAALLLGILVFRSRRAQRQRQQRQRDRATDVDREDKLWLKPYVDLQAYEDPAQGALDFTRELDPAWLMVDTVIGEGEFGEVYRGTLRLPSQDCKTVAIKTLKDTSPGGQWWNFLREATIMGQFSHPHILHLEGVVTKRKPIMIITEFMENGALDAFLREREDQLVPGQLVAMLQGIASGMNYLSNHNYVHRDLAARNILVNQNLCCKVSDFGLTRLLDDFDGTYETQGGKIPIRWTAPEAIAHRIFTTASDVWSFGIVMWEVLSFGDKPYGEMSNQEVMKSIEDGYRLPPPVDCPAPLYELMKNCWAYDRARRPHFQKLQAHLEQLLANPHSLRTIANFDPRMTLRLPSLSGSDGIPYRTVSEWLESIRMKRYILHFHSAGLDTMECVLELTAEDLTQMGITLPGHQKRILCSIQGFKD

[5] = target: Tyrosine-protein kinase Yes (Homo sapiens) (UniProt P07947); assay: Inhibition of YES (unknown origin) at 10 uM after 120 mins P33 radiolabeled kinase activity assay
[6] = target: Serine/threonine-protein kinase SIK1 (Homo sapiens) (UniProt P57059); assay: Inhibition of SIK1 (unknown origin) at 10 uM after 120 mins P33 radiolabeled kinase activity assay
Sequence of Serine/threonine-protein kinase SIK1 (Homo sapiens) (P57059 whole entry): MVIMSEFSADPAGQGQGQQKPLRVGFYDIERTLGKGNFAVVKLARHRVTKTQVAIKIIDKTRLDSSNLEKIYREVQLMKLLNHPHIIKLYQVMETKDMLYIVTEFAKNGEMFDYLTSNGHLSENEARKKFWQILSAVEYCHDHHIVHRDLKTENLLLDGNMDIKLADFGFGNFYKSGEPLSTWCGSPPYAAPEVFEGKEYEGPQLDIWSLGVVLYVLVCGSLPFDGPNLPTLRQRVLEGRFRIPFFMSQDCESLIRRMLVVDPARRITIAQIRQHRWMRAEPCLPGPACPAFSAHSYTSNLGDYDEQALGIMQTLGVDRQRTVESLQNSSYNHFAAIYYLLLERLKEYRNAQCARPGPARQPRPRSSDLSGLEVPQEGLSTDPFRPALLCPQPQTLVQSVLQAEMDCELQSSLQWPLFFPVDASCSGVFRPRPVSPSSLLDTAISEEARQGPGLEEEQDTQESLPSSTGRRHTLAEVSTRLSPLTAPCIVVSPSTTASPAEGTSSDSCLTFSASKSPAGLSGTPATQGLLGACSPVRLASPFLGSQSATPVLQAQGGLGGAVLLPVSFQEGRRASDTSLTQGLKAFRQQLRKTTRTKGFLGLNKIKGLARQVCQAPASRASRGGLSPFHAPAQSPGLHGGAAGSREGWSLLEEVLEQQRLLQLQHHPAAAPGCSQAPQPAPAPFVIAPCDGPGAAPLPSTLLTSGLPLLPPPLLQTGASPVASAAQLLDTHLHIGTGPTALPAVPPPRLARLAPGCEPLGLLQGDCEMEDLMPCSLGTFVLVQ

Sequence of Tyrosine-protein kinase Yes (Homo sapiens) (P07947 2-543 limits assumed): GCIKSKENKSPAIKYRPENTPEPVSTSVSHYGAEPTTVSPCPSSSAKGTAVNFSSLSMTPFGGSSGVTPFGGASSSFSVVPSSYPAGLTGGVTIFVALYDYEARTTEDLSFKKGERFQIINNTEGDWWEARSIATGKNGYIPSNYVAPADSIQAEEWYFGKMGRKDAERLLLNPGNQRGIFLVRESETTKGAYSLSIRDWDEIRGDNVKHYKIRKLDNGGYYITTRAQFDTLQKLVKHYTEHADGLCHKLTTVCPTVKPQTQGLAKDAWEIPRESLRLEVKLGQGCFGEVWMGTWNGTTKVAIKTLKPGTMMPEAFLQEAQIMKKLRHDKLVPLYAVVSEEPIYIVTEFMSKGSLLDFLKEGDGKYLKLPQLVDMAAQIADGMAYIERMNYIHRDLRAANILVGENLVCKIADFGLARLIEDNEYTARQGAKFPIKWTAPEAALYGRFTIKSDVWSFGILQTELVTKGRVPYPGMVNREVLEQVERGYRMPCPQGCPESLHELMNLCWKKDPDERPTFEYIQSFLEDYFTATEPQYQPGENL
Sequence of Macrophage-stimulating protein receptor (Homo sapiens) (Q04912 25-304 limits assumed): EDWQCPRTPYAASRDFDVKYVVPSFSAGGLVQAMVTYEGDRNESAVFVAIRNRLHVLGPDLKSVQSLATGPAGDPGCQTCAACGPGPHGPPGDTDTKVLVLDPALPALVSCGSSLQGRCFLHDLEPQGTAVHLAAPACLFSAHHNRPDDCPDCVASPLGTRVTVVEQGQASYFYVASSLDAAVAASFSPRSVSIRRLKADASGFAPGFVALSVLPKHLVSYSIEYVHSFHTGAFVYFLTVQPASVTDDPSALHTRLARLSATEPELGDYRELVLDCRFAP
Sequence of Macrophage-stimulating protein receptor (Homo sapiens) (Q04912 310-1400 limits assumed): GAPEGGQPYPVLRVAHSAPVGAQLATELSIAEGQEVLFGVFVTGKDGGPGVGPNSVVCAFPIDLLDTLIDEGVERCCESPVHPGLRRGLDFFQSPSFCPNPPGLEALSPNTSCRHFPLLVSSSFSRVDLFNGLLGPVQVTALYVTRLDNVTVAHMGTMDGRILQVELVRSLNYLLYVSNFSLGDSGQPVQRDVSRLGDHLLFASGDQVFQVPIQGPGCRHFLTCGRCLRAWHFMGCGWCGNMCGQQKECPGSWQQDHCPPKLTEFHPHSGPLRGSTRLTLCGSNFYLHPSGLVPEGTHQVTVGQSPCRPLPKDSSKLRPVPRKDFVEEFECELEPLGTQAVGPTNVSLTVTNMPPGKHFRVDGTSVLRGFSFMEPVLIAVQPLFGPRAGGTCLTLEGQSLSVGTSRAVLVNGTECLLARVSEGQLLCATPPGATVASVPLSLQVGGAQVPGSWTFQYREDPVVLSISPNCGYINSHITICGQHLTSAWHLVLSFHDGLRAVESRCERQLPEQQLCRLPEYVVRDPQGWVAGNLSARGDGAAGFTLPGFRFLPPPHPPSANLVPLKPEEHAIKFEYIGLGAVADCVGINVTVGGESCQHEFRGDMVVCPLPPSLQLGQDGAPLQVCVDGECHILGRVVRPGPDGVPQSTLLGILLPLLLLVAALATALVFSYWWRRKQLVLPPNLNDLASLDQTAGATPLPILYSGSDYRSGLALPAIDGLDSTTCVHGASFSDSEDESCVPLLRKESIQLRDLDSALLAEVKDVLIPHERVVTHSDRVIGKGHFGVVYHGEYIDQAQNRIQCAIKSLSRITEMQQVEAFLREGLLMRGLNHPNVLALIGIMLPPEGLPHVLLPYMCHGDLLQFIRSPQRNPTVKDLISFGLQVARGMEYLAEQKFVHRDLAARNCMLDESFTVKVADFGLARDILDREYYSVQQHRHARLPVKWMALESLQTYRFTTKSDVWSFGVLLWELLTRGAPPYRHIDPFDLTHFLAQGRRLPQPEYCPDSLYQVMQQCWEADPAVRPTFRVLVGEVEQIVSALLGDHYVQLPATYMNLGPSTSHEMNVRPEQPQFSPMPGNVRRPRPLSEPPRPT

inhibition [1] [%] | inhibition [2] [%] | inhibition [3] [%] | inhibition [4] [%] | inhibition [5] [%] | inhibition [6] [%] | Compound
-0.61 | 24.4 | 1.69 | 16.6 | 70.8 | 34.4 | COCCNC(=O)c1ccc2c(c1)nc(-c1cnc(-c3ccc(Cl)cc3)[nH]1)n2CCOC
-3.43 | 89.4 | 18.7 | 91.4 | 99.9 | 101 | CS(=O)(=O)c1cccc(Nc2nccc(-c3sc(N4CCOCC4)nc3-c3cccc(NS(=O)(=O)c4c(F)cccc4F)c3)n2)c1
-2.07 | 24.4 | 70.6 | 86.2 | 82 | 22.6 | CC(C)(C)c1cc(NC(=O)Nc2ccc(Oc3ccncc3)cc2)no1

From ChEMBL document CHEMBL3627608, “Crystal structures of human RIP2 kinase catalytic domain complexed with ATP-competitive inhibitors: Foundations for understanding inhibitor selectivity” (Bioorg Med Chem, 2015)
